Ends that are not written are not given here.
System: guinea pig ileum strips
Assay: Contraction of guinea pig ileum strips in Tyrode's solution
Assay type: cell-based
Conditions: full contraction; for Activity (amount of peptide per 10 ml of solution to contract fully guinea pig ileum strips): Table I, guinea pig ileum strips with Tyrode's solution; for Ileum Activity (amount of peptide per 10 ml of Tyrode's solution to fully contract a guinea pig ileum strip): Table II

Row | Substance | Activity (amount of peptide per 10 ml of solution to contract fully guinea pig ileum strips) | Ileum Activity (amount of peptide per 10 ml of Tyrode's solution to fully contract a guinea pig ileum strip)
1 | ASHLGLAR [No. 5, L-Alanyl-L-seryl-L-histidyl-L-leucyl-glycyl-L-leucyl-L-alanyl-L-arginine] | 5 to 8 nmol | –
2 | Ac-ALGLAR [CH3 CO--Ala-Leu-Gly-Leu-Ala-Arg] | – | 19 to 38 nmol
3 | Ac-LGLAR [CH3 CO--Leu-Gly-Leu-Ala-Arg] | – | 36 to 45 nmol
4 | Ac-AAALGLAR [CH3 CO--Ala-Ala-Ala-Leu-Gly-Leu-Ala-Arg] | – | 7 to 13 nmol
5 | Ac-ASHLGLAR [No. 6, CH3 CO--Ala-Ser-His-Leu-Gly-Leu-Ala-Arg] | 8 to 12 nmol | –
6 | Ac-HLGLAR [CH3 CO--His-Leu-Gly-Leu-Ala-Arg] | – | 8 to 17 nmol

Source: patent publication US4438029A, “Synthetic peptides” (Research Corporation, priority 1979, dated 1984)
